Values after ≈ are worked out from the molar mass of the structure shown.
Key:
Format in all cases: functional
[1] = test system: Mycobacterium tuberculosis; assay: Potency index, ratio of ethambutol MIC to compound MIC for Mycobacterium tuberculosis
[2] = test system: Mycobacterium tuberculosis; assay: Potency index, ratio of streptomycin MIC to compound MIC for Mycobacterium tuberculosis
[3] = test system: Mycobacterium tuberculosis; assay: Potency index, ratio of ethionamide MIC to compound MIC for Mycobacterium tuberculosis
[4] = test system: Mycobacterium tuberculosis; assay: Antimycobacterial activity against Mycobacterium tuberculosis
[5] = test system: Mycobacterium tuberculosis; assay: Potency index, ratio of PA-824 MIC to compound MIC for Mycobacterium tuberculosis
[6] = test system: Mycobacterium tuberculosis; assay: Potency index, ratio of ofloxacin MIC to compound MIC for Mycobacterium tuberculosis
[7] = test system: Mycobacterium tuberculosis; assay: Potency index, ratio of isoniazid MIC to compound MIC for Mycobacterium tuberculosis

SMILES: Cc1ccn2c(C(=O)NCc3ccccc3Cl)c(C)nc2c1
- Ratio [1]: >100
- Ratio [2]: >100
- Ratio [3]: >100
- MIC [4]: 3 nM (≈ 0.941 ng/mL)
- Ratio [5]: >100
- Ratio [6]: >100
- Ratio [7]: >100

— ChEMBL document CHEMBL4196086, “Recent advances of imidazole-containing derivatives as anti-tubercular agents” (Eur J Med Chem, 2018)
